Literature values, collected in article PMC11357446, “Searching for Novel HDAC6/Hsp90 Dual Inhibitors with Anti-Prostate Cancer Activity: In Silico Screening and In Vitro Evaluation” (Pharmaceuticals, 2024).

What was measured:
Hsp90 = Hsp90 (UniProt ID: P07900); set-up: method as in ChEMBL [62]; conditions: ChEMBL record on recombinant protein; ref ChEMBL [62]; read-out: Hsp90 IC50 (Standard Value); cited from earlier work
HDAC6 = HDAC6 (UniProt ID: Q9UBN7); set-up: method as in ChEMBL [62]; conditions: ChEMBL record on recombinant protein; ref ChEMBL [62]; read-out: HDAC6 IC50 (Standard Value); cited from earlier work

| Structure (SMILES) | IC50 (Hsp90) | IC50 (HDAC6) |
| --- | --- | --- |
| CC(C)c1cc(C(=O)N2Cc3ccc(NCc4ccc(C(=O)NO)cc4)cc3C2)c(O)cc1O [CHEMBL4782478] | 66 nM | 33.3 nM |
| CC(C)c1cc(-c2onc(C(=O)N[C@@H](C(=O)N3CC(F)(F)C3)C(C)C)c2-c2ccc(CN3CCOCC3)cc2)c(O)cc1O [CHEMBL4096929] | 39 nM | – |
